Assay results published in US20060166189A1, “Methods for detecting invasion of a cell” (priority 2002, published 2006).

Tested on: HeLa cells
Format: cell-based

Substance: cytosine arabinose [Ara C]
- effect on β-galactosidase expression from vSC8 (late vaccinia promoter P11): completely blocked
